Columns and labels:
Lgl1^+/− mice [1] = test: three-chamber social interaction test after NMDAR blocker injection; assay type: in vivo, mouse
Protocol: Pharmacological blockers of NMDARs were used, and animals tested in the three-chamber social interaction test.
Social interaction test—The social interaction test was performed as previously described (Yang et al., 2011). The sociability apparatus (Stoetling) has three 20 cm×40 cm chambers and two target enclosures 7 cm in diameter and 15 cm tall. During testing, the apparatus was surrounded by opaque panels to prevent mice from seeing out of the apparatus.
Animals were placed in the center chamber of the 3-chambered sociability apparatus with the doors between chambers closed for 10 minutes to habituate to the testing conditions. The doors were removed, and mice were allowed to explore the full field for 10 minutes. Non-littermate strain- and age-matched target mice from a separate cage were introduced during the social interaction phase of the test. For the social novelty phase, target mice from the social interaction phase were kept in the same location and a novel target mouse was introduced to the opposite chamber. For scoring of interaction time, ROIs containing the target mouse and novel object were selected in MATLAB. ROIs were selected by experimenters blinded to the animal genotypes or virus treatment.
Scoring for distance travelled and thigmotaxis during the open field test, as well as time spent interacting with objects in the Novel Object Recognition test and time spent interacting with target mice and objects in the Social Interaction test was performed using Autotyping 15.04 in MATLAB 2014b (Patel et al., 2014)(MathWorks).

Lgl1^+/− mice [2] = test: nestlet shredding (stereotyped repetitive behavior); assay type: in vivo, mouse; conditions: Lgl1^+/+ and Lgl1^+/− mice; ketamine injection vs saline
Protocol: Nestlet shredding—Mice were removed from their home cage and placed individually into a clean novel cage containing a weighed piece of cotton nesting material of approximately 2.8 g. Mice were left in the cage for 60 minutes. At the end of the testing period, mice were returned to their home cage. Shredded material was separated from the undisturbed portion, which was weighed (Li et al., 2006).

## C[C@]12N[C@H](Cc3ccccc31)c1ccccc12 [MK-801, dizocilpine]
Lgl1^+/− mice [1]; intraperitoneal injection of 0.3 mg/kg MK-801
  preference for social interaction (social interaction phase): strongly preferred social interaction

## CNC1(c2ccccc2Cl)CCCCC1=O (stereo not shown) [ketamine]
Lgl1^+/− mice [1]; intraperitoneal injection of 30 mg/kg ketamine, compared with control animals
  preference for social interaction (social interaction phase): clear preference for social interaction
Lgl1^+/− mice [2]
  nestlet-shredding activity: did not change

## CC12CC3CC(C)(C1)CC(N)(C3)C2 [memantine]
Lgl1^+/− mice [1]; intraperitoneal injection of 20 mg/kg memantine
  preference for social interaction (social interaction phase): strongly preferred social interaction
